Activity calls are given as the source filed them. The calls are words filed in the database; no cut-off is given here.
How the values were obtained:
B16-F10 [1] = assay: Antimelanogenic activity in mouse B16F10 cells assessed as reduction of SNP-induced melanin level at 16 uM incubated for 1 hr prior to SNP challenge measured after 48 hrs (reference value: 282.59 +/- 47.06%); format: functional
B16-F10 [2] = assay: Inhibition of SNP-induced NO production in mouse B16F10 cells assessed as decrease of intracellular cGMP level at 16 uM incubated for 1 hr prior to SNP challenge measured after 30 mins by EIA relative to control; format: functional; details: values are per cent of control
B16-F10 [3] = assay: Inhibition of SNP-induced NO production in mouse B16F10 cells at 16 uM incubated 1 hr prior to SNP challenge measured after 48 hrs by Griess assay (reference value: 237.84 +/- 4.12%); values are per cent of control
B16-F10 [4] = assay: Antimelanogenic activity in mouse B16F10 cells assessed as reduction in SNP-induced phosphorylated CREB level at 16 uM by Western blotting analysis; format: functional, cell-based
[5] = target: T1, Tyrosinase (Mus musculus) (UniProt P11344); assay: Inhibition of tyrosinase in mouse B16F10 cells at 30 uM incubated for 1 hr prior to SNP challenge measured after 48 hrs (reference value: 198.83 +/- 11.46%); format: cell-based; details: B16-F10
T1 sequence (whole entry): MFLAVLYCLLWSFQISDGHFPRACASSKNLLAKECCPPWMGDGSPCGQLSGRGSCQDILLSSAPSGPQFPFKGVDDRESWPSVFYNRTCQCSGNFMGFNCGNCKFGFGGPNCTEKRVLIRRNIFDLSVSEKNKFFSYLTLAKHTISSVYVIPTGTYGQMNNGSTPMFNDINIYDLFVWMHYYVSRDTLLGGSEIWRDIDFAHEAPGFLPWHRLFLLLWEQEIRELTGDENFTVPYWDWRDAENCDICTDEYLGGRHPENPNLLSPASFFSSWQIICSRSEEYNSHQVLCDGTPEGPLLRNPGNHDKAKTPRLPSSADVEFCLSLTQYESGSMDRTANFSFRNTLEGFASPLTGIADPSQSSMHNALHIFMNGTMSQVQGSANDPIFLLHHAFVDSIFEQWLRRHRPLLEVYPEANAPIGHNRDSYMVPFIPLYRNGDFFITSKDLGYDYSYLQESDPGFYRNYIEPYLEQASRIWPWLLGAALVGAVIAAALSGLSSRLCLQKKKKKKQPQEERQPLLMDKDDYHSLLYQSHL

[6] = target: T1, Tyrosinase (Mus musculus); assay: Inhibition of tyrosinase in SNP-stimulated mouse B16F10 cells at 4 uM incubated for 1 hr prior to SNP challenge measured after 48 hrs (reference value: 198.83 +/- 11.46%); format: cell-based; details: B16-F10, values are per cent of control
B16-F10 [7] = assay: Inhibition of SNP-induced NO production in mouse B16F10 cells at 4 uM incubated 1 hr prior to SNP challenge measured after 48 hrs by Griess assay (reference value: 237.84 +/- 4.12%); values are per cent of control
B16-F10 [8] = assay: Antimelanogenic activity in mouse B16F10 cells assessed as reduction of SNP-induced melanin level at 4 uM incubated for 1 hr prior to SNP challenge measured after 48 hrs (reference value: 282.59 +/- 47.06%); format: functional
B16-F10 [9] = assay: Inhibition of SNP-induced NO production in mouse B16F10 cells assessed as decrease of intracellular cGMP level at 4 uM incubated for 1 hr prior to SNP challenge measured after 30 mins by EIA relative to control; format: functional; details: values are per cent of control
B16-F10 [10] = assay: Antimelanogenic activity in mouse B16F10 cells assessed as reduction of SNP-induced melanin level incubated for 1 hr prior to SNP challenge measured after 48 hrs; format: functional, cell-based
B16-F10 [11] = assay: Antimelanogenic activity in mouse B16F10 cells assessed as reduction in SNP-induced tyrosinase protein level by Western blotting analysis; format: functional, cell-based
B16-F10 [12] = assay: Inhibition of SNP-induced NO production in mouse B16F10 cells assessed as decrease of intracellular cGMP level at 0.5 uM incubated for 1 hr prior to SNP challenge measured after 30 mins by EIA relative to control; format: functional; details: values are per cent of control
[13] = target: T1, Tyrosinase (Mus musculus); assay: Inhibition of tyrosinase in SNP-stimulated mouse B16F10 cells at 0.5 uM incubated for 1 hr prior to SNP challenge measured after 48 hrs (reference value: 198.83 +/- 11.46%); format: cell-based; details: B16-F10, values are per cent of control
B16-F10 [14] = assay: Antimelanogenic activity in mouse B16F10 cells assessed as reduction in SNP-induced phosphorylated CREB level at 0.5 to 4 uM by Western blotting analysis; format: functional, cell-based
B16-F10 [15] = assay: Inhibition of SNP-induced NO production in mouse B16F10 cells incubated 1 hr prior to SNP challenge measured after 48 hrs by Griess assay; format: functional, cell-based
B16-F10 [16] = assay: Inhibition of SNP-induced NO production in mouse B16F10 cells at 0.5 uM incubated 1 hr prior to SNP challenge measured after 48 hrs by Griess assay (reference value: 237.84 +/- 4.12%); values are per cent of control
B16-F10 [17] = assay: Antimelanogenic activity in mouse B16F10 cells assessed as reduction in SNP-induced nuclear MITF level by Western blotting analysis; format: functional, cell-based
B16-F10 [18] = assay: Inhibition of SNP-induced NO production in mouse B16F10 cells assessed as decrease of intracellular cGMP level incubated for 1 hr prior to SNP challenge measured after 30 mins by EIA relative to control; format: functional, cell-based
B16-F10 [19] = assay: Antimelanogenic activity in mouse B16F10 cells assessed as reduction of SNP-induced melanin level at 0.5 uM incubated for 1 hr prior to SNP challenge measured after 48 hrs (reference value: 282.59 +/- 47.06%); format: functional
[20] = target: T1, Tyrosinase (Mus musculus); assay: Inhibition of tyrosinase in SNP-stimulated mouse B16F10 cells at 16 uM incubated for 1 hr prior to SNP challenge measured after 48 hrs (reference value: 198.83 +/- 11.46%); format: cell-based; details: B16-F10, values are per cent of control

residual activity [6] [%]	residual activity [13] [%]	residual activity [20] [%]	Structure (SMILES)	level, % of control at 16 µM (B16-F10 [1]) [%]	response, % of control at 16 µM (B16-F10 [2]) [%]	level, % of control at 16 µM (B16-F10 [3]) [%]	inhibition (B16-F10 [4])	inhibition [5] [%]	level, % of control at 4 µM (B16-F10 [7]) [%]	level, % of control at 4 µM (B16-F10 [8]) [%]	response, % of control at 4 µM (B16-F10 [9]) [%]	inhibition (B16-F10 [10])	inhibition (B16-F10 [11])	response, % of control at 0.5 µM (B16-F10 [12]) [%]	inhibition (B16-F10 [14])	inhibition (B16-F10 [15])	level, % of control at 0.5 µM (B16-F10 [16]) [%]	inhibition (B16-F10 [17])	inhibition (B16-F10 [18])	level, % of control at 0.5 µM (B16-F10 [19]) [%]
–	–	–	CC1(C)N([O])C(c2ccc(C(=O)O)cc2)=[N+]([O-])C1(C)C	173	153	206	Active	34.3	–	–	–	–	–	–	–	–	–	–	–	–
60.5	84.8	31.8	O=C1NC(=O)/C(=C/c2ccc(O)cc2O)S1	100	83.1	172	Active	–	183	114	154	Dose-dependent effect	Dose-dependent effect	177	inactive	Dose-dependent effect	200	Dose-dependent effect	Dose-dependent effect	151

— ChEMBL document CHEMBL2406931, “The inhibitory effect of a synthetic compound, (Z)-5-(2,4-dihydroxybenzylidene) thiazolidine-2,4-dione (MHY498), on nitric oxide-induced melanogenesis” (2013)
